Values quoted from earlier work in patent publication US7160580B2, “Organic acids incorporated edible antimicrobial films” (The Board of Trustees for the University of Arkansas, priority 2002, dated 2007).
Several values for one entry are separate records, joined by “and”; a condition that tells them apart may be missing. Equal entries are not always repeated.

Key:
Salmonella montevideo = details: citric acid 0.2 and 0.4% in cellulose based edible film; surface or core tissue of tomatoes; assignment of the two values not stated
Listeria monocytogens [1] = details: 2% acid rinsed catfish fillets stored at 4° C., up to 5 days
Listeria monocytogens [2] = details: lean beef tissue treated with 1.7% lactic acid, stored at 5° C. for 7 days
E. coli 0157:H7 = details: lean beef tissue treated with 1.7% lactic acid, stored at 5° C. for 7 days

Row | SMILES | log reductions of Salmonella montevideo (Salmonella montevideo) | log reduction in Listeria monocytogens counts (Listeria monocytogens [1]) | log reduction Listeria monocytogens (Listeria monocytogens [2]) [log] | log reduction E. coli 0157:H7 (E. coli 0157:H7) [log]
1 | O=C(O)CC(O)(CC(=O)O)C(=O)O [citric acid] | 2.18 log and 1.92 log | less than one log reduction | – | –
2 | Cl [hydrochloric acid] | – | less than one log reduction | – | –
3 | CC(O)C(=O)O (centres unmarked) [lactic acid] | – | less than one log reduction | 2.03 | 0.91
4 | O=C(O)CC(O)C(=O)O (centres unmarked) [malic acid] | – | less than one log reduction | – | –
5 | O=C(O)C(O)C(O)C(=O)O (centres unmarked) [tartaric acid] | – | less than one log reduction | – | –
